How the values were obtained:
[1] = system: LPS-stimulated, pro-inflammatory synthesis of IL-1B in RAW macrophages; experiment: LPS-stimulated IL-1B synthesis in RAW 264.7 macrophages (ELISA); assay type: cell-based, mouse; settings: LPS 10 ng/ml, 24 h
Procedure: (§1) RAW 264.7 (mouse macrophage tumor cells) cells were provided from the University of Cordoba in Spain and maintained in RPMI1640 medium containing FCS.
(§2) Cells are seeded in 24-well-plates (approx. 500 000 cells/ml in 1 ml) for ELISA experiments.
(§3) Cells are incubated without or with LPS (10 ng/ml) for 24 h. The pyrozol derivates or additives such as Thymol or Menthol (3 doses, 1, 10, 100 μM) are added 30 min before LPS treatment as single dose or in combination. […] After 24 h, supernatants are removed, centrifuged, and investigated for PGE2 concentrations in EIA (PGE2, from Cayman, isoprostane from Cayman) or ELISA (IL-1B, IL-6, TNF-alpha, Biotechne)). Each dose is investigated 2 times.
(§4) Optimal dose range for additives and substituted azacycles was determined in a preliminary assays dose finding assay (data not shown). Thus, test items are investigated at 10 μM 100 μM or any combination of the two doses for additive effects. Synergism is defined as additive effect surpassing the hypothetical mathematical value of effective doses. The hypothetical value is depicted in all graphs as dashed line.

[2] = system: LPS-stimulated, pro-inflammatory synthesis of PGE2 in RAW macrophages; experiment: LPS-stimulated PGE2 synthesis in RAW 264.7 macrophages (EIA); assay type: cell-based, mouse; settings: 10 μM in combination with 10 μM Thymol, LPS 10 ng/ml, 24 h
Procedure: as §1, §2, §3, §4

[3] = in combination with Menthol, 10 μM or 100 μM each, all tested combinations
[4] = in combination with Thymol, 10 μM or 100 μM each

SMILES	effect on LPS-stimulated IL-1 beta synthesis [1, 3]	effect on LPS-stimulated IL-1 beta synthesis [1, 4]	effect on LPS-stimulated PGE2 synthesis [2]	effect on LPS-stimulated IL-1 beta synthesis ([1]; applied as single substance)
CSC(C)C(=O)N1CCCC[C@@H]1c1ncc(-c2ccc(C)cc2)[nH]1 (stereo partly drawn) [CoNo11, 2-methylsulfanyl-1-[(1R)-2-[5-(p-tolyl)-1H-imidazol-2-yl]-1-piperidyl]-propan-1-one]	strong inhibition of IL-1 beta synthesis	strong synergistic soothing effect		
CCC(C)C(=O)N1CCCCC1c1ncc(-c2ccc(C)cc2)[nH]1 (stereo not drawn) [CoNo164, 2-methyl-1-[2-[5-(p-tolyl)-1H-imidazol-2-yl]-1-piperidyl]butan-1-one]	strong inhibition of IL-1 beta synthesis	strong synergistic soothing effect	synergistically mitigated PGE2 synthesis	
CC[C@H](C)C(=O)N1CCCCC1c1ncc(-c2ccc(C)cc2)[nH]1 (stereo partly drawn) [CoNo166, (2S)-2-methyl-1-[2-[5-(p-tolyl)-1H-imidazol-2-yl]-1-piperidyl]butan-1-one]	strong inhibition of IL-1 beta synthesis	strong synergistic soothing effect	synergistically mitigated PGE2 synthesis	
CC1CCC(C(C)C)C(O)C1 (stereo not drawn) [Menthol]				stimulates IL-1 beta synthesis

Source: patent US20240358611A1, “COMPOSITIONS” (SYMRISE AG, priority 2021, published 2024)
